31 molecules from PMC6600241, “Identification and Structure-Activity Studies of 1,3-Dibenzyl-2-aryl imidazolidines as Novel Hsp90 Inhibitors” (Molecules, 2019) can be followed below.

In assay [1] the test system is MCF-7 cells. Nature of the assay: MTT anti-proliferative assay on MCF-7 cells. The class given is cell-based, human. Here is the method:
(§1) The anti-proliferative activity of compounds was determined by MTT (3-[4,5-dimethylthiazole-2-yl]-2,5-diphenyltetrazolium bromide) assay on MCF-7 and A549 cell lines, respectively. Cells were purchased from the Institute of Basic Medical Science, Chinese Academy of Medical Science (Beijing, China). Cells were maintained in RPMI-1640 with 10% fetal bovine serum (FBS) and 1% Penicillin-Streptomycin Solution (PS) and cultured at 37 °C in a humidified atmosphere containing 5% CO2. Compounds to be evaluated were dissolved in DMSO (dimethyl sulfoxide), diluted in RPMI-1640, and stored at −20 °C before use. Cells were seeded in 96-well plates at a density of 5000 cells/well (200 μL) and incubated overnight. Culture medium was replaced with fresh RPMI (Roswell Park Memorial Institute)-1640 containing compounds in different concentrations (100 μM–50 μM–25 μM–12.5 μM–6.25 μM–3.125 μM). Then, cells were incubated in a 5% CO2 incubator for 48 h. The 20 μL MTT solution (5 mg/mL) was added to each well and incubated at 37 °C. After 4 h, the medium was removed and formazan crystals were dissolved in 100 μL DMSO. Absorbance was measured at a wavelength of 490 nm using Synergy H1 (BioTek Instruments, Inc., Winooski, VT, USA). IC50 values were calculated by GraphPad Prism 5 (GraphPad Software, Inc., San Diego, CA, USA).

In assay [2] the test system is A549 cells. Briefly: MTT anti-proliferative assay on A549 cells. The class given is cell-based, human. The following applies: mean ± SD, three experiments. As to the method:
as §1

In assay [3] the target is T1, human Hsp90α (Homo sapiens, UniProt P07900).
T1 construct: FP assay using Hsp90α N-Terminal Domain Assay Kit (BPS Bioscience, Catalog #50293, CA, USA); purchased BPS Bioscience 50293
Briefly: Fluorescence polarization (FP) competitive binding assay, Hsp90α N-Terminal Domain Assay Kit. The following applies: FITC-labeled geldanamycin competition, mean ± SD, three experiments. As to the method:
In brief, the Hsp90 assay buffer (15 μL), 40 mM dithiothreitol (DTT) (5 μL), 2 mg/mL BSA (5 μL), and H2O (40 μL) were added to the plate. To each well, 100 nM fluorescein isothiocyanate (FITC)-labeled geldanamycin (5 μL) and diluted compounds in different concentrations (0.5, 5, 50, 500 μM, 10 μL) were added in an orderly manner. The reactions were initiated by adding 20 μL of Hsp90α (17 ng/μL). […] The data were analyzed using GraphPad Prism 5 (GraphPad Software, Inc.).

Assay [4] concerns Hsp70. Nature of the assay: Western blotting, Hsp70 expression in MCF-7 cells. It counts as cell-based, human. The following applies: 24 h; for expression of Hsp70: MCF-7 cells, compound at IC50 concentration. As to the method: (§2) Primary antibodies against Hsp70, Hsp90, Her2, and GAPDH were bought from Abcam (Cambridge, MA, USA). HRP (horseradish peroxidase) labeled anti-rabbit immunoglobulin G (H + L) secondary antibody was purchased from Abbkine (Redlands, CA, USA). MCF-7 cells were cultured as described above to a density of 10^6 cells per dish. […] Cells were washed with cold phosphate buffered saline (PBS, pH = 7.4) three times and lysed in radio immunoprecipitation assay (RIPA) lysate (containing 1% phenylmethanesulfonyl fluoride (PMSF)) on ice for 45 min. The lysates were collected and clarified at 12,000× g for 20 min at 4 °C using high speed refrigerated centrifuge. Protein concentration was determined by the bicinchoninic acid (BCA) protein assay kit. The protein sample (20 µg) was electrophoresed using 8% SDS-PAGE (sodium dodecyl sulfate- polyacrylamide gel electrophoresis), transferred to poly(vinylidene fluoride) (PVDF) membranes, and then blocked for 1 h in 5% skim milk in TBST (20 mM Tris-HCl pH 7.4, 100 mM NaCl, and 0.1% Tween 20). The membranes were immunoblotted with primary antibodies for 2 h at room temperature. After incubation with an HRP anti-rabbit IgG (H + L) (1:100,000) as a secondary antibody, the bands were detected using the ECL^TM Prime Western Blotting Detection System (ProteinSimple, San Jose, CA, USA). The density of proteins was determined using the AlphaView SA (Alpha Innotech Corp., version 3.4.0.0, San Leandro, CA, USA).

In assay [5] the test system is Her2. Briefly: Western blotting, Her2 expression in MCF-7 cells. The class given is cell-based, human. Particulars: 24 h. Here is the method:
as §2

Assay [6] deals with Hsp90. Briefly: Western blotting, Hsp90 expression in MCF-7 cells. Particulars: 24 h; for expression of Hsp90: MCF-7 cells, compound at IC50 concentration. The class given is cell-based, human. As to the method:
as §2

[7] abbreviates: Homo sapiens, MCF7, Figure 3, mean ± SD, n = 3, read-out: anti-proliferative activity against MCF-7 cells (IC50), top 21 molecules from virtual screening.
Where [8] appears, read: Homo sapiens, MCF7, MTT, 48-h post treatment, mean ± SD, three experiments, read-out: IC50 MCF-7.
Setting [9] is: Homo sapiens, A549, 48-h post treatment.
The mark [10] stands for this setting: MCF-7 cells, 0, 5, 10, 20 and 40 µM.
[11] abbreviates: MCF-7 cells, compound at IC50 concentration.

Where two headings read alike, the source gives them in different places.

Take `O=C(Cn1c(-c2ccccn2)nc2ccccc21)NCCc1ccccc1` [Compound 2a]: the IC50 in assay [1] (setting [7]) was 190.6 ± 1.41 µM.

`Cc1ccc(C2N(Cc3ccccc3)CCN2Cc2ccccc2)s1` [Compound 4e, 1,3-dibenzyl-2-(5-Methylthiophene)-imidazolidine]: the half-inhibitory concentration (IC50) in assay [1] (setting [8]) stood at 119.3 ± 0.42 µM; in assay [2] (setting [9]), 113 ± 1.41 µM.

On to `COc1ccc(-c2nnc(SCC(=O)N3CCOCC3)n2Cc2ccccc2)cc1` [Compound 1b], for which, in assay [1] (setting [7]), the IC50 is 133.6 ± 1.13 µM.

`Clc1ccc(C2N(Cc3ccccc3)CCN2Cc2ccccc2)s1` [Compound 4d, 1,3-dibenzyl-2-(5-chlorothiophene)-imidazolidine]: the half-inhibitory concentration (IC50) in assay [1] (setting [8]) is 68.35 ± 0.44 µM; in assay [3] it was 672 ± 10 nM; in assay [2] (setting [9]) it was 56.3 ± 1.27 µM.

In the case of `CCOC(=O)c1nnn(Cc2ccccc2Cl)c1NC(=O)CN1CCC(C)CC1` [Compound 1c], in assay [1] (setting [7]), the 50% inhibitory concentration (IC50) turned out to be 134 ± 0.42 µM.

For the molecule `Clc1ccc(C2N(c3ccccc3)CCN2c2ccccc2)c(Cl)n1` [Compound 6d], the IC50 in assay [1] (setting [8]) worked out at 323 ± 2.28 µM; in assay [2] (setting [9]), 248.6 ± 0.57 µM.

For the molecule `O=C(Cn1c(-c2ccccn2)nc2ccccc21)NCCCN1CCOCC1` [Compound 2b], the IC50 in assay [1] (setting [7]) is 310.5 ± 0.71 µM.

For `Fc1ccc(Cl)cc1C1N(Cc2ccccc2)CCN1Cc1ccccc1` [Compound 4i, 1,3-dibenzyl-2-(5-chloro-2-fluoro-phenyl)-imidazolidine], the values for the concentration for half-maximal inhibition (IC50) in assay [1] (setting [8]), in assay [3] and in assay [2] (setting [9]) were 27.86 ± 0.01 µM, 610 ± 14 nM and 59.3 ± 0.83 µM, respectively.

Consider `c1ccc(CN2CCN(Cc3ccccc3)C2c2cc3ccccc3s2)cc1` [Compound 4f, 1,3-dibenzyl-2-(1-benzothiophene)-imidazolidine], for which the IC50 in assay [1] (setting [8]) was determined as 219.4 ± 0.57 µM; in assay [2] (setting [9]), 136 ± 1.41 µM.

Turning to `CCN1CCN(CC)C1c1cc(Cl)ccc1F` [Compound 7b], the IC50 was 158.9 ± 0.14 µM in assay [1] (setting [8]) and 164 ± 1.41 µM in assay [2] (setting [9]).

On to `Fc1ccc(Cl)cc1C1N(c2ccccc2)CCN1c1ccccc1` [Compound 6c], for which the values for the 50% inhibitory concentration (IC50) in assay [1] (setting [8]), in assay [3] and in assay [2] (setting [9]) were 43.7 ± 1.03 µM, 1930 ± 13 nM and 46.14 ± 0.2 µM, respectively.

In the case of `Brc1cncc(C2N(Cc3ccccc3)CCN2Cc2ccccc2)c1` [Compound 4p], the results for the half-maximal inhibitory concentration (IC50) in assay [1] (setting [8]) and in assay [2] (setting [9]) were 45.2 ± 0.63 µM and 72.87 ± 0.66 µM, respectively.

Consider `c1ccc(CN2CCN(Cc3ccccc3)C2c2cncnc2)cc1` [Compound 4r], for which the IC50 was determined as 51.4 ± 0.54 µM in assay [1] (setting [8]) and 80.8 ± 1 µM in assay [2] (setting [9]).

In the case of `NC(=O)c1nnn(Cc2ccccc2)c1NC(=O)CSc1nnc(-c2ccco2)o1` [Compound 1d], in assay [1] (setting [7]), the IC50 is 243.3 ± 0.99 µM.

In the case of `O=S(=O)(c1ccccc1)c1nc(-c2ccc(Cl)cc2)oc1NCCCN1CCOCC1` [Compound 3d], in assay [1] (setting [7]), the IC50 was found to be 70.34 ± 0.2 µM.

On to `Clc1ncc(C2N(Cc3ccccc3)CCN2Cc2ccccc2)s1` [Compound 4j, 1,3-dibenzyl-2-(2-chloro-5-thiazolyl)-imidazolidine], for which the “expression level of Hsp70 regulated” value in assay [4] (setting [10]) is recorded as “concentration-dependent manner”. Moreover, the IC50 in assay [1] (setting [8]) was 33.12 ± 0.23 µM; in assay [3] it was 310 ± 14 nM; in assay [2] (setting [9]), 35.3 ± 0.14 µM. For the same molecule, in assay [5] (setting [10]), the “expression level of Her2 regulated” value was “concentration-dependent manner”. Moreover, the “expression level of Hsp90 regulated” value in assay [6] (setting [10]) is recorded as “concentration-dependent manner”.

Turning to `c1ccc(CN2CCN(Cc3ccccc3)C2c2cccs2)cc1` [Compound 4c, 1,3-dibenzyl-2-thiophene-imidazolidine], the IC50 stood at 80.04 ± 0.63 µM in assay [1] (setting [8]) and 78.18 ± 0.15 µM in assay [2] (setting [9]).

Consider `O=[N+]([O-])c1ccc(C2N(Cc3ccccc3)CCN2Cc2ccccc2)s1` [Compound 4a], for which, in assay [4], the “expression of Hsp70” value is reported as “significantly induced”. Besides, the IC50 in assay [1] (setting [8]) came to 21.6 ± 0.57 µM; in assay [3], 12 ± 10 nM; in assay [2] (setting [9]), 31.22 ± 0.31 µM. The “expression level of Her2” value in assay [5] (setting [11]) was “significantly down-regulated”. The “expression level of Her2 down-regulated to” value in assay [5] (setting [11]) came out at 48%. For the same molecule, the “expression of Hsp90” value in assay [6] is “slightly increased”.

Turning to `Cc1cc(NC(=O)CCS(=O)(=O)c2nc(-c3ccc4c(c3)OCO4)cc(C(F)(F)F)n2)no1` [Compound 3b], the IC50 in assay [1] (setting [7]) was 32.4 ± 0.55 µM.

In the case of “1,3-dibenzyl-2-(3-bromo-5-thiazolyl)-imidazolidine [Compound 4k]”, the IC50 in assay [1] (MTT, 48-h post treatment, mean ± SD, three experiments, read-out: IC50 MCF-7) was found to be 77.01 ± 0.01 µM; in assay [2] (48-h post treatment), 498.8 ± 0.25 µM.

`c1ccc(N2CCN(c3ccccc3)C2c2ccco2)cc1` [Compound 6a]: the IC50 stood at 40.77 ± 0.39 µM in assay [1] (setting [8]) and 123.4 ± 0.85 µM in assay [2] (setting [9]).

On to `CN1CCN(C)C1c1cc(Cl)ccc1F` [Compound 8a], for which the IC50 in assay [1] (setting [8]) was found to be 250.1 ± 0.27 µM; in assay [2] (setting [9]), 149 ± 1.56 µM.

Consider `Cc1ccc(O)c(C2N(Cc3ccccc3)CCN2Cc2ccccc2)c1` [Compound 4b], for which the “expression of Hsp70” value in assay [4] is “significantly induced”. Besides, the IC50 in assay [1] (setting [8]) was determined as 50.62 ± 0.26 µM; in assay [3], 612 ± 14 nM; in assay [2] (setting [9]), 88.58 ± 0.08 µM. In assay [5] (setting [11]), the “expression level of Her2” value is reported as “significantly down-regulated”. For the same molecule, the “expression of Hsp90” value in assay [6] is recorded as “slightly increased”.

On to `O=[N+]([O-])c1ccc(C2N(Cc3ccccc3)CCN2Cc2ccccc2)cc1` [Compound 4h, 1,3-dibenzyl-2-(4-nitro-phenyl)-imidazolidine], for which the values for the IC50 in assay [1] (setting [8]) and in assay [2] (setting [9]) were 117.7 ± 0.01 µM and 55.6 ± 0.49 µM, respectively.

As to `C=CCNC1=C2CC(C)CC(OC)C(O)C(C)C=C(C)C(OC(N)=O)C(OC)C=CC=C(C)C(=O)NC(=CC1=O)C2=O` (stereo not shown) [Compound 17-AAG, reference compound], the IC50 in assay [1] (setting [8]) worked out at 7.18 ± 0.13 µM; in assay [2] (setting [9]) it was 3.54 ± 0.08 µM.

Turning to `Clc1ccc(C2N(Cc3ccccc3)CCN2Cc2ccccc2)c(Cl)n1` [Compound 4n], the IC50 in assay [1] (setting [8]) came out at 40.4 ± 0.51 µM; in assay [3], 102 ± 10 nM; in assay [2] (setting [9]), 52.11 ± 0.5 µM.

As for `O=[N+]([O-])c1ccccc1C1N(Cc2ccccc2)CCN1Cc1ccccc1` [Compound 4g, 1,3-dibenzyl-2-(2-nitro-phenyl)-imidazolidine], the values for the IC50 in assay [1] (setting [8]) and in assay [2] (setting [9]) were 40.91 ± 0.05 µM and 40.6 ± 0.51 µM, respectively.

With `COc1ccc(C(=O)/C=C/Nc2ccc(S(=O)(=O)Nc3ccc(OC)nn3)cc2)cc1` [Compound 3a], in assay [1] (setting [7]), the IC50 stood at 29.2 ± 0.34 µM.

Turning to `CCN1CCN(CC)C1c1ccnc(Cl)c1` [Compound 7a], the IC50 is > 500 µM in assay [1] (setting [8]) and 250.1 ± 1.27 µM in assay [2] (setting [9]).

Take `Clc1ncc(C2N(c3ccccc3)CCN2c2ccccc2)s1` [Compound 6b]: the IC50 came out at 161.6 ± 0.57 µM in assay [1] (setting [8]) and 172 ± 1.41 µM in assay [2] (setting [9]).

On to `O=S(=O)(c1ccccc1)c1nc(-c2ccco2)oc1NCc1ccc(F)cc1` [Compound 3e], for which the IC50 in assay [1] (setting [7]) stood at 238 ± 0.71 µM.
